One series deals with ATCC43300 (MRSA). The series is described as follows: In vitro antibacterial activity (MIC) against MRSA. Particulars: MRSA strain ATCC43300; method of Pharmacopoeia of the People's Republic of China (2015 edition). The format is cell-based, Methicillin-resistant Staphylococcus aureus. The procedure: (§1) An antibacterial activity of the compounds in Table 1 is determined in vitro, and a minimum inhibitory concentration (MIC) is read. The determination method refers to the method of the Pharmacopoeia of the People's Republic of China (2015 edition). The MRSA detection strain is purchased from ATCC, and the VRE detection strain is from the clinically isolated drug-resistant strain 07-W3-45 from Shanghai Huashan Hospital. Known antibiotic oritavancin (phosphate) is used for a reference drug.

The next series concerns wild AB zebrafish. The series is described as follows: Zebrafish toxicity test. The following applies: intravenous injection, 72 hours of treatment, samples in phosphate form. The class given is in vivo. The procedure:
A zebrafish toxicity test of the compounds in Table 1 is also tested. Randomly select wild AB zebrafish in a six-well plate, and inject each test sample at a dose of 50, 100, 150, 200, and 250 ng/tail intravenously. At the same time, a normal control group and a solvent control group (aqueous phosphoric acid) are set; During this experiment, the death of zebrafish is observed and recorded every day and the dead fish are removed. After 72 hours of treatment, the death of zebrafish is counted. Calculate the LD50 of each test product to zebrafish.
All samples are tested for zebrafish toxicity in phosphate form.

The test system of series [1] is Clinical isolates 07-W3-45 (VRE). The experiment in a line: In vitro antibacterial activity (MIC) against VRE. Particulars: clinically isolated drug-resistant strain 07-W3-45 from Shanghai Huashan Hospital. The class given is cell-based, Vancomycin-resistant Enterococcus. How it is done:
as §1

Converted amounts (≈) assume the structure as drawn.

On to `CNC(CC(C)C)C(=O)NC1C(=O)NC(CC(N)=O)C(=O)NC2C(=O)NC3C(=O)NC(C(=O)NC(C(=O)O)c4cc(O)cc(O)c4-c4cc3ccc4O)C(OC3CC(C)(N)C(O)C(C)O3)c3ccc(c(Cl)c3)Oc3cc2cc(c3OC2OC(CO)C(O)C(O)C2OC2CC(C)(NCc3ccc(OCc4ccccc4)cc3)C(O)C(C)O2)Oc2ccc(cc2Cl)C1O` (stereo not drawn) [Compound 1], for which the “MIC ATCC43300 (MRSA)” value in the series on ATCC43300 (MRSA) turned out to be 0.5 µg/mL (≈ 0.28 µM). In the series on wild AB zebrafish, the “Zebrafish LD50” value came out at 139 ng/tail. Also, in series [1], the “MIC Clinical isolates 07-W3-45 (VRE)” value is 2 µg/mL (≈ 1.12 µM).
Regarding `CNC(CC(C)C)C(=O)NC1C(=O)NC(CC(N)=O)C(=O)NC2C(=O)NC3C(=O)NC(C(=O)NC(C(=O)O)c4cc(O)cc(O)c4-c4cc3ccc4O)C(OC3CC(C)(N)C(O)C(C)O3)c3ccc(c(Cl)c3)Oc3cc2cc(c3OC2OC(CO)C(O)C(O)C2OC2CC(C)(NCc3ccc(OCCc4ccccc4)cc3)C(O)C(C)O2)Oc2ccc(cc2Cl)C1O` (stereo not drawn) [Compound 2], the “MIC ATCC43300 (MRSA)” value in the series with ATCC43300 (MRSA) is 0.5 µg/mL (≈ 0.277 µM). Besides, the “Zebrafish LD50” value in the series on wild AB zebrafish is listed as 163 ng/tail. Besides, the “MIC Clinical isolates 07-W3-45 (VRE)” value in series [1] worked out at 2 µg/mL (≈ 1.11 µM).
In the case of `CNC(CC(C)C)C(=O)NC1C(=O)NC(CC(N)=O)C(=O)NC2C(=O)NC3C(=O)NC(C(=O)NC(C(=O)O)c4cc(O)cc(O)c4-c4cc3ccc4O)C(OC3CC(C)(N)C(O)C(C)O3)c3ccc(c(Cl)c3)Oc3cc2cc(c3OC2OC(CO)C(O)C(O)C2OC2CC(C)(NCc3ccc(OCCCc4ccccc4)cc3)C(O)C(C)O2)Oc2ccc(cc2Cl)C1O` (stereo not drawn) [Compound 3], the “MIC ATCC43300 (MRSA)” value in the series with ATCC43300 (MRSA) amounted to 0.25 µg/mL (≈ 0.138 µM). Moreover, the “Zebrafish LD50” value with wild AB zebrafish is recorded as 123 ng/tail. Further, the “MIC Clinical isolates 07-W3-45 (VRE)” value in series [1] was 1 µg/mL (≈ 0.55 µM).
As for `CNC(CC(C)C)C(=O)NC1C(=O)NC(CC(N)=O)C(=O)NC2C(=O)NC3C(=O)NC(C(=O)NC(C(=O)O)c4cc(O)cc(O)c4-c4cc3ccc4O)C(OC3CC(C)(N)C(O)C(C)O3)c3ccc(c(Cl)c3)Oc3cc2cc(c3OC2OC(CO)C(O)C(O)C2OC2CC(C)(NCc3ccc(OCc4ccc(C)cc4)cc3)C(O)C(C)O2)Oc2ccc(cc2Cl)C1O` (stereo not drawn) [Compound 4], the “MIC ATCC43300 (MRSA)” value in the series on ATCC43300 (MRSA) was 0.5 µg/mL (≈ 0.277 µM). In addition, the “Zebrafish LD50” value in the series on wild AB zebrafish stood at 101 ng/tail. Besides, the “MIC Clinical isolates 07-W3-45 (VRE)” value in series [1] was 2 µg/mL (≈ 1.11 µM).
Consider `CNC(CC(C)C)C(=O)NC1C(=O)NC(CC(N)=O)C(=O)NC2C(=O)NC3C(=O)NC(C(=O)NC(C(=O)O)c4cc(O)cc(O)c4-c4cc3ccc4O)C(OC3CC(C)(N)C(O)C(C)O3)c3ccc(c(Cl)c3)Oc3cc2cc(c3OC2OC(CO)C(O)C(O)C2OC2CC(C)(NCc3ccc(OCc4ccc(Cl)cc4)cc3)C(O)C(C)O2)Oc2ccc(cc2Cl)C1O` (stereo not drawn) [Compound 5], for which, in the series on ATCC43300 (MRSA), the “MIC ATCC43300 (MRSA)” value came out at 0.5 µg/mL (≈ 0.274 µM). Also, the “Zebrafish LD50” value in the series on wild AB zebrafish amounted to 180 ng/tail. Further, in series [1], the “MIC Clinical isolates 07-W3-45 (VRE)” value was determined as 2 µg/mL (≈ 1.1 µM).
In the case of `CNC(CC(C)C)C(=O)NC1C(=O)NC(CC(N)=O)C(=O)NC2C(=O)NC3C(=O)NC(C(=O)NC(C(=O)O)c4cc(O)cc(O)c4-c4cc3ccc4O)C(OC3CC(C)(N)C(O)C(C)O3)c3ccc(c(Cl)c3)Oc3cc2cc(c3OC2OC(CO)C(O)C(O)C2OC2CC(C)(NCc3ccc(OCCc4ccc(C)cc4)cc3)C(O)C(C)O2)Oc2ccc(cc2Cl)C1O` (stereo not drawn) [Compound 6], the “MIC ATCC43300 (MRSA)” value with ATCC43300 (MRSA) came out at 0.25 µg/mL (≈ 0.138 µM). In the series with wild AB zebrafish, the “Zebrafish LD50” value came to 121 ng/tail. Moreover, the “MIC Clinical isolates 07-W3-45 (VRE)” value in series [1] came out at 8 µg/mL (≈ 4.4 µM).
`CNC(CC(C)C)C(=O)NC1C(=O)NC(CC(N)=O)C(=O)NC2C(=O)NC3C(=O)NC(C(=O)NC(C(=O)O)c4cc(O)cc(O)c4-c4cc3ccc4O)C(OC3CC(C)(N)C(O)C(C)O3)c3ccc(c(Cl)c3)Oc3cc2cc(c3OC2OC(CO)C(O)C(O)C2OC2CC(C)(NCc3ccc(OCCc4ccc(F)cc4)cc3)C(O)C(C)O2)Oc2ccc(cc2Cl)C1O` (stereo not drawn) [Compound 7]: the “MIC ATCC43300 (MRSA)” value in the series on ATCC43300 (MRSA) was 0.5 µg/mL (≈ 0.275 µM). Moreover, the “Zebrafish LD50” value in the series with wild AB zebrafish was 97 ng/tail. In series [1], the “MIC Clinical isolates 07-W3-45 (VRE)” value is 1 µg/mL (≈ 0.549 µM).
For the molecule `CNC(CC(C)C)C(=O)NC1C(=O)NC(CC(N)=O)C(=O)NC2C(=O)NC3C(=O)NC(C(=O)NC(C(=O)O)c4cc(O)cc(O)c4-c4cc3ccc4O)C(OC3CC(C)(N)C(O)C(C)O3)c3ccc(c(Cl)c3)Oc3cc2cc(c3OC2OC(CO)C(O)C(O)C2OC2CC(C)(NCc3ccc(OCCc4ccc(Cl)cc4)cc3)C(O)C(C)O2)Oc2ccc(cc2Cl)C1O` (stereo not drawn) [Compound 8], the “MIC ATCC43300 (MRSA)” value against ATCC43300 (MRSA) is 0.5 µg/mL (≈ 0.272 µM). In the series with wild AB zebrafish, the “Zebrafish LD50” value amounted to 150 ng/tail. Also, the “MIC Clinical isolates 07-W3-45 (VRE)” value in series [1] came to 1 µg/mL (≈ 0.544 µM).
`CNC(CC(C)C)C(=O)NC1C(=O)NC(CC(N)=O)C(=O)NC2C(=O)NC3C(=O)NC(C(=O)NC(C(=O)O)c4cc(O)cc(O)c4-c4cc3ccc4O)C(OC3CC(C)(N)C(O)C(C)O3)c3ccc(c(Cl)c3)Oc3cc2cc(c3OC2OC(CO)C(O)C(O)C2OC2CC(C)(NCc3ccc(OCCc4ccc(Br)cc4)cc3)C(O)C(C)O2)Oc2ccc(cc2Cl)C1O` (stereo not drawn) [Compound 9]: in the series on ATCC43300 (MRSA), the “MIC ATCC43300 (MRSA)” value amounted to 0.25 µg/mL (≈ 0.133 µM). For the same molecule, the “Zebrafish LD50” value with wild AB zebrafish is reported as 129 ng/tail. In addition, the “MIC Clinical isolates 07-W3-45 (VRE)” value in series [1] was determined as 1 µg/mL (≈ 0.531 µM).
Consider `CNC(CC(C)C)C(=O)NC1C(=O)NC(CC(N)=O)C(=O)NC2C(=O)NC3C(=O)NC(C(=O)NC(C(=O)O)c4cc(O)cc(O)c4-c4cc3ccc4O)C(OC3CC(C)(N)C(O)C(C)O3)c3ccc(c(Cl)c3)Oc3cc2cc(c3OC2OC(CO)C(O)C(O)C2OC2CC(C)(NCc3ccc(OCCc4cccc(Br)c4)cc3)C(O)C(C)O2)Oc2ccc(cc2Cl)C1O` (stereo not drawn) [Compound 10], for which the “MIC ATCC43300 (MRSA)” value against ATCC43300 (MRSA) came out at 0.125 µg/mL (≈ 0.0664 µM). In the series with wild AB zebrafish, the “Zebrafish LD50” value was 113 ng/tail. In addition, in series [1], the “MIC Clinical isolates 07-W3-45 (VRE)” value worked out at 1 µg/mL (≈ 0.531 µM).
Regarding `CNC(CC(C)C)C(=O)NC1C(=O)NC(CC(N)=O)C(=O)NC2C(=O)NC3C(=O)NC(C(=O)NC(C(=O)O)c4cc(O)cc(O)c4-c4cc3ccc4O)C(OC3CC(C)(N)C(O)C(C)O3)c3ccc(c(Cl)c3)Oc3cc2cc(c3OC2OC(CO)C(O)C(O)C2OC2CC(C)(NCc3ccc(OCCc4ccc(C(F)(F)F)cc4)cc3)C(O)C(C)O2)Oc2ccc(cc2Cl)C1O` (stereo not drawn) [Compound 11], in the series with ATCC43300 (MRSA), the “MIC ATCC43300 (MRSA)” value amounted to 0.064 µg/mL (≈ 0.0342 µM). For the same molecule, the “Zebrafish LD50” value in the series on wild AB zebrafish is 99 ng/tail. Also, the “MIC Clinical isolates 07-W3-45 (VRE)” value in series [1] is 0.5 µg/mL (≈ 0.267 µM).
In the case of `CNC(CC(C)C)C(=O)NC1C(=O)NC(CC(N)=O)C(=O)NC2C(=O)NC3C(=O)NC(C(=O)NC(C(=O)O)c4cc(O)cc(O)c4-c4cc3ccc4O)C(OC3CC(C)(N)C(O)C(C)O3)c3ccc(c(Cl)c3)Oc3cc2cc(c3OC2OC(CO)C(O)C(O)C2OC2CC(C)(NCc3ccc(OCCc4ccc(OC)cc4)cc3)C(O)C(C)O2)Oc2ccc(cc2Cl)C1O` (stereo not drawn) [Compound 12], the “MIC ATCC43300 (MRSA)” value in the series with ATCC43300 (MRSA) was 0.5 µg/mL (≈ 0.273 µM). For the same molecule, the “Zebrafish LD50” value with wild AB zebrafish was determined as 188 ng/tail. Besides, the “MIC Clinical isolates 07-W3-45 (VRE)” value in series [1] was 16 µg/mL (≈ 8.73 µM).
Turning to `CNC(CC(C)C)C(=O)NC1C(=O)NC(CC(N)=O)C(=O)NC2C(=O)NC3C(=O)NC(C(=O)NC(C(=O)O)c4cc(O)cc(O)c4-c4cc3ccc4O)C(OC3CC(C)(N)C(O)C(C)O3)c3ccc(c(Cl)c3)Oc3cc2cc(c3OC2OC(CO)C(O)C(O)C2OC2CC(C)(NCc3ccc(OCCCc4ccc(Cl)cc4)cc3)C(O)C(C)O2)Oc2ccc(cc2Cl)C1O` (stereo not drawn) [Compound 13], the “MIC ATCC43300 (MRSA)” value against ATCC43300 (MRSA) amounted to 0.5 µg/mL (≈ 0.27 µM). Moreover, the “Zebrafish LD50” value with wild AB zebrafish stood at 164 ng/tail. Moreover, the “MIC Clinical isolates 07-W3-45 (VRE)” value in series [1] was found to be 2 µg/mL (≈ 1.08 µM).
Taken in the same sequence, the figures for `CNC(CC(C)C)C(=O)NC1C(=O)NC(CC(N)=O)C(=O)NC2C(=O)NC3C(=O)NC(C(=O)NC(C(=O)O)c4cc(O)cc(O)c4-c4cc3ccc4O)C(OC3CC(C)(N)C(O)C(C)O3)c3ccc(c(Cl)c3)Oc3cc2cc(c3OC2OC(CO)C(O)C(O)C2OC2CC(C)(NCc3ccc(SCc4ccccc4)cc3)C(O)C(C)O2)Oc2ccc(cc2Cl)C1O` (stereo not drawn) [Compound 14] were 0.032 µg/mL (≈ 0.0177 µM), 82 ng/tail and 8 µg/mL (≈ 4.43 µM).

For the origin of these results see patent US11696937B2, “Glycopeptide compounds having activity of resisting drug-resistant bacteria, and preparation method and application thereof” (priority 2018, dated 2023).
